{"source": "ChEMBL document CHEMBL1201862", "about": "“PubChem BioAssay data set” (2004)", "experiment_in_all_cases": "NCI-60 cell line screen, 48 h", "key": {"786-0": {"system": "786-0"}, "A498": {"system": "A498"}, "A549": {"system": "A549"}, "ACHN": {"system": "ACHN"}, "BT-549": {"system": "BT-549"}, "CAKI-1": {"system": "CAKI-1"}, "CCRF-CEM": {"system": "CCRF-CEM"}, "COLO 205": {"system": "COLO 205"}, "DU-145": {"system": "DU-145"}, "EKVX": {"system": "EKVX"}, "HCC 2998": {"system": "HCC 2998"}, "HCT-116": {"system": "HCT-116"}, "HCT-15": {"system": "HCT-15"}, "HL-60": {"system": "HL-60"}, "HOP-62": {"system": "HOP-62"}, "HOP-92": {"system": "HOP-92"}, "HT-29": {"system": "HT-29"}, "Hs-578T": {"system": "Hs-578T"}, "IGROV-1": {"system": "IGROV-1"}, "K562": {"system": "K562"}, "KM12": {"system": "KM12"}, "LOX IMVI": {"system": "LOX IMVI"}, "M14": {"system": "M14"}, "MCF7": {"system": "MCF7"}, "MDA-MB-231": {"system": "MDA-MB-231"}, "MDA-MB-435": {"system": "MDA-MB-435"}, "MDA-N": {"system": "MDA-N"}, "MOLT-4": {"system": "MOLT-4"}, "Malme-3M": {"system": "Malme-3M"}, "NCI-H226": {"system": "NCI-H226"}, "NCI-H23": {"system": "NCI-H23"}, "NCI-H460": {"system": "NCI-H460"}, "NCI-H522": {"system": "NCI-H522"}, "NCI/ADR-RES": {"system": "NCI/ADR-RES"}, "OVCAR-3": {"system": "OVCAR-3"}, "OVCAR-4": {"system": "OVCAR-4"}, "OVCAR-5": {"system": "OVCAR-5"}, "OVCAR-8": {"system": "OVCAR-8"}, "PC-3": {"system": "PC-3"}, "RPMI-8226": {"system": "RPMI-8226"}, "RXF 393": {"system": "RXF 393"}, "SF-268": {"system": "SF-268"}, "SF-295": {"system": "SF-295"}, "SF-539": {"system": "SF-539"}, "SK-MEL-28": {"system": "SK-MEL-28"}, "SK-MEL-2": {"system": "SK-MEL-2"}, "SK-MEL-5": {"system": "SK-MEL-5"}, "SK-OV-3": {"system": "SK-OV-3"}, "SN12C": {"system": "SN12C"}, "SNB-19": {"system": "SNB-19"}, "SNB-75": {"system": "SNB-75"}, "SR": {"system": "SR"}, "SW-620": {"system": "SW-620"}, "T47D": {"system": "T47D"}, "TK-10": {"system": "TK-10"}, "U-251": {"system": "U-251"}, "UACC-257": {"system": "UACC-257"}, "UACC-62": {"system": "UACC-62"}, "UO-31": {"system": "UO-31"}}, "note": "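Grown in 96-well plates, cells were treated for 48 hours with each compound at five concentrations. Insufficient inhibition: endpoint recorded as highest concentration tested. The concentration for 50% growth inhibition is given as GI50.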 Activity calls are given as the source filed them. No stated cut-off is given here; in the data, active = GI50 up to about 1.1 µM and inactive = higher.", "data": [{"smiles": "O=C(CCc1ccccc1)NCCc1ccc(O)c(O)c1", "values": [{"measurement": "GI50", "setting": "786-0", "result": "21.5 µM (inactive)"}, {"measurement": "GI50", "setting": "A498", "result": "78.2 µM (inactive)"}, {"measurement": "GI50", "setting": "A549", "result": "47.5 µM (inactive)"}, {"measurement": "GI50", "setting": "ACHN", "result": "14.2 µM (inactive)"}, {"measurement": "GI50", "setting": "BT-549", "result": "7.01 µM (inactive)"}, {"measurement": "GI50", "setting": "CAKI-1", "result": "4.99 µM (inactive)"}, {"measurement": "GI50", "setting": "CCRF-CEM", "result": "1.42 µM (inactive)"}, {"measurement": "GI50", "setting": "COLO 205", "result": "17 µM (inactive)"}, {"measurement": "GI50", "setting": "DU-145", "result": "> 63.2 µM (inactive)"}, {"measurement": "GI50", "setting": "EKVX", "result": "62.4 µM (inactive)"}, {"measurement": "GI50", "setting": "HCC 2998", "result": "53.5 µM (inactive)"}, {"measurement": "GI50", "setting": "HCT-116", "result": "27.7 µM (inactive)"}, {"measurement": "GI50", "setting": "HCT-15", "result": 31.3, "unit": "µM"}, {"measurement": "GI50", "setting": "HL-60", "result": "3.43 µM (inactive)"}, {"measurement": "GI50", "setting": "HOP-62", "result": "> 40.6 µM (inactive)"}, {"measurement": "GI50", "setting": "HOP-92", "result": "17.4 µM (inactive)"}, {"measurement": "GI50", "setting": "HT-29", "result": "39.7 µM (inactive)"}, {"measurement": "GI50", "setting": "Hs-578T", "result": "> 50.1 µM (inactive)"}, {"measurement": "GI50", "setting": "IGROV-1", "result": "23.5 µM (inactive)"}, {"measurement": "GI50", "setting": "K562", "result": "7.11 µM (inactive)"}, {"measurement": "GI50", "setting": "KM12", "result": "34.8 µM (inactive)"}, {"measurement": "GI50", "setting": "LOX IMVI", "result": "35.6 µM (inactive)"}, {"measurement": "GI50", "setting": "M14", "result": "> 54.8 µM (inactive)"}, {"measurement": "GI50", "setting": "MCF7", "result": "31.8 µM (inactive)"}, {"measurement": "GI50", "setting": "MDA-MB-231", "result": "24.8 µM (inactive)"}, {"measurement": "GI50", "setting": "MDA-MB-435", "result": "15.6 µM (inactive)"}, {"measurement": "GI50", "setting": "MDA-N", "result": "14.8 µM (inactive)"}, {"measurement": "GI50", "setting": "MOLT-4", "result": "3.89 µM (inactive)"}, {"measurement": "GI50", "setting": "Malme-3M", "result": "45.3 µM (inactive)"}, {"measurement": "GI50", "setting": "NCI-H226", "result": "21.2 µM (inactive)"}, {"measurement": "GI50", "setting": "NCI-H23", "result": "32.4 µM (inactive)"}, {"measurement": "GI50", "setting": "NCI-H460", "result": "46.9 µM (inactive)"}, {"measurement": "GI50", "setting": "NCI-H522", "result": "5.26 µM (inactive)"}, {"measurement": "GI50", "setting": "NCI/ADR-RES", "result": "28.4 µM (inactive)"}, {"measurement": "GI50", "setting": "OVCAR-3", "result": "22.2 µM (inactive)"}, {"measurement": "GI50", "setting": "OVCAR-4", "result": "10.4 µM (inactive)"}, {"measurement": "GI50", "setting": "OVCAR-5", "result": "> 31.6 µM (inactive)"}, {"measurement": "GI50", "setting": "OVCAR-8", "result": "30.3 µM (inactive)"}, {"measurement": "GI50", "setting": "PC-3", "result": "> 42.1 µM (inactive)"}, {"measurement": "GI50", "setting": "RPMI-8226", "result": "2.54 µM (inactive)"}, {"measurement": "GI50", "setting": "RXF 393", "result": "> 100 µM (inactive)"}, {"measurement": "GI50", "setting": "SF-268", "result": "33.8 µM (inactive)"}, {"measurement": "GI50", "setting": "SF-295", "result": "> 53.3 µM (inactive)"}, {"measurement": "GI50", "setting": "SF-539", "result": "23.2 µM (inactive)"}, {"measurement": "GI50", "setting": "SK-MEL-28", "result": "45.6 µM (inactive)"}, {"measurement": "GI50", "setting": "SK-MEL-2", "result": "22 µM (inactive)"}, {"measurement": "GI50", "setting": "SK-MEL-5", "result": "16.7 µM (inactive)"}, {"measurement": "GI50", "setting": "SK-OV-3", "result": "27.2 µM (inactive)"}, {"measurement": "GI50", "setting": "SN12C", "result": "36 µM (inactive)"}, {"measurement": "GI50", "setting": "SNB-19", "result": "48.9 µM (inactive)"}, {"measurement": "GI50", "setting": "SNB-75", "result": "84.5 µM (inactive)"}, {"measurement": "GI50", "setting": "SR", "result": "4.01 µM (inactive)"}, {"measurement": "GI50", "setting": "SW-620", "result": "> 100 µM (inactive)"}, {"measurement": "GI50", "setting": "T47D", "result": "59.4 µM (inactive)"}, {"measurement": "GI50", "setting": "TK-10", "result": "> 100 µM (inactive)"}, {"measurement": "GI50", "setting": "U-251", "result": "41.2 µM (inactive)"}, {"measurement": "GI50", "setting": "UACC-257", "result": "44.6 µM (inactive)"}, {"measurement": "GI50", "setting": "UACC-62", "result": "34.3 µM (inactive)"}, {"measurement": "GI50", "setting": "UO-31", "result": "4.57 µM (inactive)"}]}]}
